Results on 15 compounds are retold here after ChEMBL document CHEMBL5143508, “Design, synthesis and biological evaluation of novel o-aminobenzamide derivatives as potential anti-gastric cancer agents in vitro and in vivo” (Eur J Med Chem, 2022).

“And” between values parts separate entries of the source, which are not always exact repeats. Identical values can stand only once. Bounds are passed on as bounds.

Data set [1] can be described thus: in vitro. The settings on record: human, GES1 cells.
Description: Cytotoxicity against human GES1 cells assessed as inhibition of cell growth incubated for 72 hrs by MTT assay
The subject of data set [2] is HGC-27. Description: cells. The settings on record: Homo sapiens, HGC-27, 72 h. Format: functional, cell-based.
Description: Cytotoxicity against human HGC-27 cells assessed as inhibition of cell growth incubated for 72 hrs by MTT assay
A further data set concerns BGC-823. Briefly: cells. The settings on record: Homo sapiens, BGC-823, 72 h. Format: functional, cell-based.
The test system of a further data set is AGS. Briefly: cells. Type of data set: functional, cell-based. The settings on record: Homo sapiens, 72 h.
For the next data set, the system named is MGC-803. Briefly: cells. Type of data set: functional, cell-based. The settings on record: Homo sapiens, MGC-803, 72 h.
The subject of another data set is SGC-7901. Briefly: cells. Format: functional, cell-based. The settings on record: Homo sapiens, SGC-7901, 72 h.
Data set [3] in a line: in vitro. Particulars: human, WI-38 cells.
Description: Cytotoxicity against human WI-38 cells assessed as inhibition of cell growth incubated for 72 hrs by MTT assay
A short description of data set [4]: Toxicity in BALB/c mouse xenografted with human HGC-27 cells assessed as RBC level at 150 mg/kg, po bid for 19 days. Format: organism-based, Erythrocyte. Particulars: in vivo, 456 h, time 19 day. (In general: A xenograft is tissue or cells of one species grown in another, often human tumour cells in immunodeficient mice.)
A short description of data set [5]: Toxicity in BALB/c mouse xenografted with human HGC-27 cells assessed as granulocyte level at 150 mg/kg, po bid for 19 days. Format: organism-based. Particulars: in vivo, 456 h, time 19 day.
A short description of data set [6]: Toxicity in BALB/c mouse xenografted with human HGC-27 cells assessed as platelet level at 150 mg/kg, po bid for 19 days. The settings on record: in vivo, 456 h, time 19 day. Type of data set: organism-based.
The nature of data set [7]: Toxicity in BALB/c mouse xenografted with human HGC-27 cells assessed as monocyte level at 150 mg/kg, po bid for 19 days. Type of data set: organism-based. Particulars: in vivo, 456 h, time 19 day.
The test system of data set [8] is HGC-27. Briefly: Antitumor activity against human HGC-27 cells xenografted in BALB/c mouse assessed as tumor growth inhibition at 150 mg/kg, po bid administered for 19 days. Type of data set: functional. Particulars: HGC-27, 456 h, time 19 day, read-out: TGI.
The nature of data set [9]: Toxicity in BALB/c mouse xenografted with human HGC-27 cells assessed as lymphocyte level at 150 mg/kg, po bid for 19 days. Format: organism-based. Particulars: in vivo, 456 h, time 19 day.
Data set [10] is described as follows: Toxicity in BALB/c mouse xenografted with human HGC-27 cells assessed as platelet distribution width at 150 mg/kg, po bid for 19 days. Format: organism-based. Particulars: in vivo, 456 h, time 19 day.
Data set [11] is described as follows: Toxicity in BALB/c mouse xenografted with human HGC-27 cells assessed as mean platelet volume at 150 mg/kg, po bid for 19 days. Format: organism-based. Particulars: in vivo, 456 h, time 19 day.
The nature of data set [12]: Toxicity in BALB/c mouse xenografted with human HGC-27 cells assessed as red blood cell distribution width at 150 mg/kg, po bid for 19 days. Format: organism-based. Particulars: in vivo, 456 h, time 19 day.
A short description of data set [13]: Toxicity in BALB/c mouse xenografted with human HGC-27 cells assessed as mean corpuscular volume at 150 mg/kg, po bid for 19 days. Type of data set: organism-based. The settings on record: in vivo, 456 h, time 19 day.
Data set [14] is described as follows: Toxicity in BALB/c mouse xenografted with human HGC-27 cells assessed as hematocrit level at 150 mg/kg, po bid for 19 days. Type of data set: organism-based. Particulars: in vivo, 456 h, time 19 day.
Data set [15] has as its system HGC-27. Briefly: Antiproliferative activity against human HGC-27 cells measured after 24 hrs by […]. Type of data set: functional, cell-based. Particulars: HGC-27, 24 h.

The IC50 is the midpoint of a concentration-inhibition curve. High values mean weaker potency, low ones greater potency.

Description for AGS: Cytotoxicity against human AGS cells assessed as inhibition of cell growth incubated for 72 hrs by MTT assay
Description for BGC-823: Cytotoxicity against human BGC-823 cells assessed as inhibition of cell growth incubated for 72 hrs by MTT assay
Description for MGC-803: Cytotoxicity against human MGC-803 cells assessed as inhibition of cell growth incubated for 72 hrs by MTT assay
Description for SGC-7901: Cytotoxicity against human SGC-7901 cells assessed as inhibition of cell growth incubated for 72 hrs by MTT assay

On to `Cc1cccc(C(=O)Nc2ccc(CNC(=O)OCc3cccnc3)cc2)c1N1CCCC1`, for which the IC50 at 72 h in the data set “in vitro [1]” and in “in vitro [3]” was more than 100 µM throughout. Also, the IC50 with HGC-27 [2] is 1030 nM; in the data set with BGC-823 it was more than 100 µM; in the data set on AGS, more than 100 µM; in the data set with MGC-803, more than 100 µM; with SGC-7901, more than 100 µM.

On to `Nc1ccccc1NC(=O)c1ccc(CNC(=O)OCc2cccnc2)cc1` [ENTINOSTAT], for which, in the data set “in vitro [1]”, the IC50 at 72 h came to 60.2 µM. For the same compound, the IC50 with HGC-27 [2] is 18500 nM; with BGC-823 it was 27 µM; in the data set on AGS, 26.7 µM; in the data set on MGC-803, 58.6 µM; in the data set on SGC-7901 it was more than 200 µM.

On to `O=C(NCc1ccc(NC(=O)c2ccc(F)cc2N2CCCC2)cc1)OCc1cccnc1`, for which the IC50 at 72 h in “in vitro [1]” and in “in vitro [3]” was more than 100 µM throughout. Besides, the IC50 is 1840 nM with HGC-27 [2]; 74.5 µM in the data set with BGC-823; more than 100 µM in the data set on AGS; 52.1 µM with MGC-803; 56.2 µM with SGC-7901.

With `O=C(NCc1ccc(NC(=O)c2cc(C(F)(F)F)ccc2N2CCCC2)cc1)OCc1cccnc1`, the IC50 at 72 h in the data set “in vitro [1]” and in the data set “in vitro [3]” was more than 100 µM in each case. The IC50 is 790 nM in the data set with HGC-27 [2]; more than 100 µM in the data set on BGC-823; more than 100 µM in the data set with AGS; 42.1 µM in the data set with MGC-803; more than 100 µM in the data set on SGC-7901.

`O=C(NCc1ccc(NC(=O)c2cccc(F)c2N2CCCC2)cc1)OCc1cccnc1`: the IC50 at 72 h in the data set “in vitro [1]” and in the data set “in vitro [3]” was more than 100 µM throughout. Moreover, the IC50 in the data set with HGC-27 [2] is 2020 nM; in the data set with BGC-823, more than 100 µM; in the data set with AGS, more than 100 µM; with MGC-803, more than 100 µM; in the data set with SGC-7901, more than 100 µM.

Consider `O=c1[nH]cc(F)c(=O)[nH]1` [FLUOROURACIL], for which, in “in vitro [1]”, it took 38.5 µM to reach half-maximal inhibition (IC50 at 72 h). Further, the IC50 with HGC-27 [2] turned out to be 27500 nM; in the data set on BGC-823 it was 14 µM; with AGS, 23.2 µM; in the data set on MGC-803, 62.5 µM; in the data set on SGC-7901, 69.8 µM.

As to `O=C(NCc1ccc(NC(=O)c2cc(Br)ccc2N2CCCC2)cc1)OCc1cccnc1`, the IC50 at 72 h in “in vitro [1]” and in “in vitro [3]” was more than 100 µM each time. Further, the IC50 in the data set on HGC-27 [2] was 640 nM; in the data set with BGC-823, more than 100 µM; in the data set with AGS it was more than 100 µM; in the data set with MGC-803 it was 45.7 µM; with SGC-7901, more than 100 µM.

For the compound `Cc1ccc(C(=O)Nc2ccc(CNC(=O)OCc3cccnc3)cc2)c(N2CCCC2)c1`, the IC50 at 72 h in “in vitro [1]” and in the data set “in vitro [3]” was more than 100 µM each time. Further, the IC50 in the data set on HGC-27 [2] was 1870 nM; in the data set with BGC-823, more than 100 µM; with AGS, more than 100 µM; with MGC-803, more than 100 µM; in the data set on SGC-7901 it was 75.2 µM.

`COc1ccc(N2CCCC2)c(C(=O)Nc2ccc(CNC(=O)OCc3cccnc3)cc2)c1`: the IC50 at 72 h in “in vitro [1]” was more than 100 µM; in “in vitro [3]” it was 35.6 µM. The IC50 in the data set on HGC-27 [2] was 138000 nM; in the data set on BGC-823, more than 100 µM; in the data set on AGS, 25.6 µM; in the data set with MGC-803, 85.7 µM; in the data set with SGC-7901, 47.2 µM.

`CCCCCOC(=O)Nc1nc(=O)n([C@@H]2O[C@H](C)[C@@H](O)[C@H]2O)cc1F` [CAPECITABINE]: the Activity in [4] is 10.26 10^12/L; in data set [5], 73.83 10^9/L and 90.38%; in [6], 799 10^9/L; in data set [7] it was 1.75 10^9/L and 2.18%; in data set [9] it was 6.1 10^9/L and 7.45%; in data set [10] it was 17.93. Besides, the Activity came out at 6.95 fL in [11], 15.63% in data set [12], 53.73 fL in data set [13] and 55.25% in data set [14]. The inhibition in vivo at 150 mg/kg in the data set on HGC-27 [8] was found to be 29.9%.

For `O=C(NCc1ccc(NC(=O)c2cc(-c3ccccc3)ccc2N2CCCC2)cc1)OCc1cccnc1`, the IC50 at 72 h in the data set “in vitro [1]” and in the data set “in vitro [3]” was more than 100 µM each time. Moreover, the IC50 with HGC-27 [2] was 4340 nM; with BGC-823 it was more than 100 µM; in the data set with AGS it was more than 100 µM; with MGC-803 it was 10.5 µM; in the data set with SGC-7901, more than 100 µM.

Consider `Cc1ccc(N2CCCC2)c(C(=O)Nc2ccc(CNC(=O)OCc3cccnc3)cc2)c1`, for which the values for the IC50 at 72 h in the data set “in vitro [1]” and in “in vitro [3]” were more than 100 µM and 40.6 µM, respectively. Further, the IC50 is 1650 nM in the data set on HGC-27 [2]; more than 100 µM in the data set with BGC-823; 24.7 µM with AGS; 19.1 µM in the data set with MGC-803; 65.3 µM in the data set with SGC-7901.

Turning to `C#Cc1cccc(C(=O)Nc2ccc(CNC(=O)OCc3cccnc3)cc2)c1`, in the data set with HGC-27 [15], the IC50 was more than 100000 nM.

`O=C(NCc1ccc(NC(=O)c2cc(Cl)ccc2N2CCCC2)cc1)OCc1cccnc1`: the IC50 at 72 h in “in vitro [1]” and in the data set “in vitro [3]” was more than 100 µM each time. In addition, the IC50 in the data set with HGC-27 [2] was 750 nM; with BGC-823 it was more than 100 µM; in the data set on AGS, more than 100 µM; in the data set on MGC-803, 55.5 µM; with SGC-7901 it was more than 100 µM.

Consider `C#Cc1ccc(N2CCCC2)c(C(=O)Nc2ccc(CNC(=O)OCc3cccnc3)cc2)c1`, for which the IC50 in the data set on HGC-27 [15] is 2480 nM. This counts as single-digit micromolar.
